Data: US20230234938A1 (RHIZEN PHARMACEUTICALS AG, priority 2020, published 2023)
pIC50: −log10 of the molar value. Like-named read-outs stand apart in the source and are kept apart here.

Assays:
[1] = target: PARP1 (Homo sapiens, UniProt P09874); assay: PARP enzyme assay (PARP1, chemiluminescent histone ribosylation); conditions: for % inhibition 10 nM / % inhibition 100 nM: PARP enzyme assay; for % inhibition 10 nM: 10 nM compound, 0.01 µM; for % inhibition 100 nM: 100 nM compound, 0.1 µM
Protocol: 1) Coat 25 µL of histone solution onto a 384-well plate as described below: • Dilute 5x histone mixture 1:5 with PBS. • Add 25 µL of diluted histone solution to each well and incubate at 4° C. overnight. • Wash the plate three times using 100 µL PBST buffer (1x PBS containing 0.05% Tween20) per well. • Tap plate onto clean paper towel to remove liquid. • Block the wells by adding 100 µL of Blocking buffer 3 to every well. Incubate at room temperature for 1 h 15 minutes. • Wash plate three times with 100 µL PBST buffer as described above. • Tap plate onto clean paper towel to remove liquid.
1) Preparation of 1X PARP Buffer: • Prepare 1x PARP buffer by adding 1 part of 10x PARP buffer to 9 parts distilled water (v/v). To prepare 500 µL of 1X PARP buffer, add 50 µL 10X PARP Assay buffer to 450 µL of H2O and mix well.
2) Preparation of the Ribosylation master mixture: • N wells x (1.25 µL 10x PARP buffer + 1.25 µL 10X PARP Assay mixture + 2.5 µL Activated DNA + 7.5 µL distilled water). Add 12.5 µL to every well.
3) Preparation of the inhibitor solution: • 10 mM stock solution of the inhibitor was prepared in DMSO. From 10 mM stock solution, 250X concentrations of the inhibitor were made in DMSO. • 250X DMSO concentrations of the inhibitor were further diluted to 10X concentrations in 1X kinase buffer. • 2.5 µL (10X concentrations) of kinase buffer containing inhibitor was added to each well. • For the “Positive Control” and “Blank”, add 2.5 µL of kinase buffer containing DMSO (4%) was added. • The final DMSO concentration in the well was 0.4 %.
4) Preparation of the enzyme solution: • Thaw PARP1 enzyme on ice. Upon first thaw, briefly spin tube containing enzyme to recover full content of the tube. Calculate the amount of PARP1 required for the assay and dilute enzyme to 2.0 ng/µL with 1x PARP buffer. • Initiate reaction by adding 10 µL of diluted PARP1 enzyme to the wells designated “Positive Control” and “Test Inhibitor”. • To the wells designated as “Blank”, add 10 µL of 1X PARP buffer. • Centrifuge the plate at 1000 rpm for 30 seconds and incubate at room temperature for 60 min. • Discard the reaction mixture after 1 hour, and wash plate three times with 100 µL PBST buffer and tap plate onto clean paper towel as described above.
1) Preparation of Streptavidin-HRP: • Dilute Streptavidin-HRP 1:50 in Blocking buffer. • Add 25 µL of diluted Streptavidin-HRP to each well. Incubate for 30 min. at room temperature. • Wash three times with 100 µL PBST buffer and tap plate onto clean paper towel as above as described above.
2) Preparation of ECL substrate: • Just before use, mix on ice equal amounts of ELISA ECL Substrate A and ELISA ECL Substrate B and add 50 µL per well. • Immediately read the plate in microtiter-plate in Chemiluminescence setting. The “Blank” value is subtracted from all other values.

[2] = target: PARP2 (Homo sapiens, UniProt Q9UGN5); assay: PARP enzyme assay (PARP2); format: biochemical
Chain of PARP2 (Q9UGN5 whole entry, species assumed): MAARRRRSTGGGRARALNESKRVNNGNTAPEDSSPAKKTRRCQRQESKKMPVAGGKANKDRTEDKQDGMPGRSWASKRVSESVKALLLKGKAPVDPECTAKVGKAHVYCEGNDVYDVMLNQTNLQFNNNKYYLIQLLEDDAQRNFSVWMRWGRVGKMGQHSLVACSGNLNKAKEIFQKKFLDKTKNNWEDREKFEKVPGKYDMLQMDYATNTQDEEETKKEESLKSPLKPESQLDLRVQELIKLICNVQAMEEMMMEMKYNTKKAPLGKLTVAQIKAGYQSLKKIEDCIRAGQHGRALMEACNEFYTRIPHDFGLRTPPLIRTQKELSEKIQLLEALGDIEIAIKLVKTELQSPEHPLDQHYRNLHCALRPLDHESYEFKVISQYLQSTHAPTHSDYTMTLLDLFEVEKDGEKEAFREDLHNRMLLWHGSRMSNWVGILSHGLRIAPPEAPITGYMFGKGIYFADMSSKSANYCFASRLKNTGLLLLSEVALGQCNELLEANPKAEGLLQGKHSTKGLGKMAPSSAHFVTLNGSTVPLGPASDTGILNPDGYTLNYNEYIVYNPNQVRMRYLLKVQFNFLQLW
Text: Step 2: Ribosylation Reaction

[3] = system: PAR in UWB 1.289 cells; assay: PAR inhibition in UWB 1.289 cells (western blot); format: cell-based, human
Protocol: Example-3 UWB 1.289 cells were plated at a predetermined density in a 6-well plate in its respective media and plates were incubated at 37° C. and 5% CO2 overnight. After overnight incubation, the plates were treated with desired concentrations of the compound or DMSO and the plates were incubated at 37° C. and 5% CO2 as required for 24 hours. After completion of 24 hours incubation, total cell lysates were prepared from the treated samples. Lysates were analysed by western-blot analysis and probed with Human PAR specific monoclonal antibody or human specific beta-actin monoclonal antibody (loading control). Western-blot images were developed after exposing them to chemiluminescent substrate and images were captured on imaging system. Target specific bands and loading specific bands were measured using densitometric analysis. Densitometric values of target specific bands were normalized to loading control values. % inhibition of PAR was calculated relative to DMSO treated samples. Results: % inhibitions values are given below in Table-2: […]

Chain of PARP1 (P09874 whole entry, species assumed): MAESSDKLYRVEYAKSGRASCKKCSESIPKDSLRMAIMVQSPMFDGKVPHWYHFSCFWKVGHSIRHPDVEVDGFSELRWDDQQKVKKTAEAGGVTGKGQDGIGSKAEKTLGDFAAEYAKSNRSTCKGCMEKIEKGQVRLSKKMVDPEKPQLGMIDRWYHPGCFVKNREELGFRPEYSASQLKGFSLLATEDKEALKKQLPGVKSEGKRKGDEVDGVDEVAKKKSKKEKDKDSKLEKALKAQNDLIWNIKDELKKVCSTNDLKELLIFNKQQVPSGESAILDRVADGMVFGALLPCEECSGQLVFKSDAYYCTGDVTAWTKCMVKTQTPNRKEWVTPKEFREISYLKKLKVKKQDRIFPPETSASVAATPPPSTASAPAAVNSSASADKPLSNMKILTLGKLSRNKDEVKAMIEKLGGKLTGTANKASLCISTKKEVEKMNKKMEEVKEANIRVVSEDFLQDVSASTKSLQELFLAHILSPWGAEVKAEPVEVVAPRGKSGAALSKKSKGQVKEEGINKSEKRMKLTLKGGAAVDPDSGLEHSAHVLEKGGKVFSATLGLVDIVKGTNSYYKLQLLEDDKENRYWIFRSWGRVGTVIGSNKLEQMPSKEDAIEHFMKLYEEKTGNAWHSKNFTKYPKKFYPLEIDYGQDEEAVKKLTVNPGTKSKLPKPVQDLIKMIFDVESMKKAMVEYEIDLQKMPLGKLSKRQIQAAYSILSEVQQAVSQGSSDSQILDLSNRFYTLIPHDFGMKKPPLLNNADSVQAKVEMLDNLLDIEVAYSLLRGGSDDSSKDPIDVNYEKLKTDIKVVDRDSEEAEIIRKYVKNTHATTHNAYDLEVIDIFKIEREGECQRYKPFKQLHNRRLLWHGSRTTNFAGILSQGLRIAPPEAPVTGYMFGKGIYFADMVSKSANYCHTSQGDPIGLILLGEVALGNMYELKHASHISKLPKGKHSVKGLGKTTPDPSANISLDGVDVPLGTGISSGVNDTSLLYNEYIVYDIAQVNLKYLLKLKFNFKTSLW

Row | Compound | melting point | inhibition at 0.01 µM ([1]; read-out: % inhibition 10 nM) | inhibition at 0.1 µM ([1]; read-out: % inhibition 100 nM) | further results
1 | O=C1N(c2cncc(Cc3n[nH]c(=O)c4ccccc34)c2)c2ccccc2C1(O)C(F)(F)F (single isomer, unassigned; (-)) [Example 27, (-)-4-((5-(3-Hydroxy-2-oxo-3-(trifluoromethyl)indolin-1-yl)pyridin-3-yl)methyl)phthalazin-1(2H)-one] | 210 to 214 °C | – | – | % inhibition 10 nM [1]: C (C represents >25% to ≤50%); % inhibition 100 nM [1]: C (C represents >25% to ≤50%)
2 | CC1(O)C(=O)N(c2cc(Cc3n[nH]c(=O)c4ccccc34)ccn2)c2ccccc21 (stereo not drawn) [Example 18, 4-((2-(3-hydroxy-3-methyl-2-oxoindolin-1-yl)pyridin-4-yl)methyl)phthalazin-1(2H)-one] | 203 to 205 °C | 75 to 100% | 75 to 100% | pIC50 [1]: > 8.00; IC50 [2]: < 10 nM
3 | CC1(O)C(=O)N(c2cncc(Cc3n[nH]c(=O)c4cc(F)ccc34)c2)c2ccccc21 (single isomer, unassigned; (-)) [Example 8, (-)-7-Fluoro-4-((5-(3-hydroxy-3-methyl-2-oxoindolin-1-yl)pyridin-3-yl)methyl)phthalazin-1(2H)-one] | 138 to 141 °C | – | – | PAR % inhibition in UWB 1.289 @ 10 nM ([3]; UWB 1.289 cells, 10 nM, 24 hours, western blot relative to DMSO, 0.01 µM): C (C represents >25% to ≤50%); IC50 [2]: < 10 nM
4 | CC1(O)C(=O)N(c2cncc(Cc3n[nH]c(=O)c4ccccc34)c2)c2cc(F)ccc21 (stereo not drawn) [Example 16] | 125 to 128 °C | 75 to 100% | 75 to 100% | –
5 | CC1(O)C(=O)N(c2cncc(Cc3n[nH]c(=O)c4ccccc34)c2)c2ccc(F)cc21 (stereo not drawn) [Example 13, 4-((5-(5-Fluoro-3-hydroxy-3-methyl-2-oxoindolin-1-yl)pyridin-3-yl)methyl)phthalazin-1(2H)-one] | 116 to 120 °C | 75 to 100% | 75 to 100% | pIC50 [1]: > 8.00; IC50 [2]: < 10 nM
6 | CC1(O)C(=O)N(c2cncc(Cc3n[nH]c(=O)c4cc(F)ccc34)c2)c2ccccc21 (stereo not drawn) [Example 6, 7-Fluoro-4-((5-(3-hydroxy-3-methyl-2-oxoindolin-1-yl)pyridin-3-yl)methyl)phthalazin-1(2H)-one] | 133 to 136 °C | – | – | IC50 [2]: < 10 nM
7 | CC1(O)C(=O)N(c2cc(Cc3n[nH]c(=O)c4ccccc34)ccc2F)c2ccccc21 (stereo not drawn) [Example 4, 4-(4-Fluoro-3-(3-hydroxy-3-methyl-2-oxoindolin-1-yl)benzyl)phthalazin-1(2H)-one] | 131 to 134 °C | 75 to 100% | 75 to 100% | –
8 | CC1(O)C(=O)N(c2cncc(Cc3n[nH]c(=O)c4ccc(F)cc34)c2)c2ccccc21 (stereo not drawn) [Example 9, 6-Fluoro-4-((5-(3-hydroxy-3-methyl-2-oxoindolin-1-yl)pyridin-3-yl)methyl)phthalazin-1(2H)-one] | 132 to 135 °C | 75 to 100% | 75 to 100% | –
9 | CC1(O)C(=O)N(c2cc(Cc3n[nH]c(=O)c4ccccc34)ccn2)c2ccccc21 (single isomer, unassigned; (-)) [Example 19, (-)-4-((2-(3-Hydroxy-3-methyl-2-oxoindolin-1-yl)pyridin-4-yl)methyl)phthalazin-1(2H)-one] | 207 to 210 °C | – | – | pIC50 [1]: > 8.00; inhibition at 0.01 µM ([1]; read-out: % inhibition 10 nM, PARP enzyme assay, 10 nM compound): 75 to 100%; inhibition at 0.1 µM ([1]; read-out: % inhibition 100 nM, PARP enzyme assay, 100 nM compound): 75 to 100%; IC50 [2]: < 10 nM
10 | O=C1N(c2cncc(Cc3n[nH]c(=O)c4ccccc34)c2)c2ccccc2C1(O)C(F)(F)F (single isomer, unassigned; (+)) [Example 26, (+)-4-((5-(3-Hydroxy-2-oxo-3-(trifluoromethyl)indolin-1-yl)pyridin-3-yl)methyl)phthalazin-1(2H)-one] | 170 to 174 °C | – | – | % inhibition 10 nM [1]: A (A represents >75% to 100%); % inhibition 100 nM [1]: A (A represents >75% to 100%)
11 | C[C@]1(O)C(=O)N(c2cncc(Cc3n[nH]c(=O)c4ccccc34)c2)c2ccccc21 [Example 2, (R)-(+)-4-((5-(3-Hydroxy-3-methyl-2-oxoindolin-1-yl)pyridin-3-yl)methyl)phthalazin-1(2H)-one] | – | – | – | inhibition at 0.01 µM ([3]; Homo sapiens, UWB1289, 24 h, read-out: PAR % inhibition in UWB 1.289 @ 10 nM, UWB 1.289 cells, 10 nM, 24 hours, western blot relative to DMSO): 75 to 100%; pIC50 [1]: > 8.00; IC50 [2]: < 10 nM
12 | CC1(O)C(=O)N(c2cncc(Cc3n[nH]c(=O)c4cc(F)ccc34)c2)c2ccc(F)cc21 (stereo not drawn) [Example 10, 7-Fluoro-4-((5-(5-fluoro-3-hydroxy-3-methyl-2-oxoindolin-1-yl)pyridin-3-yl)methyl)phthalazin-1(2H)-one] | 157 to 160 °C | 75 to 100% | 75 to 100% | pIC50 [1]: > 8.00
13 | CCC1(O)C(=O)N(c2cncc(Cc3n[nH]c(=O)c4ccccc34)c2)c2ccccc21 (stereo not drawn) [Example 5, 4-((5-(3-Ethyl-3-hydroxy-2-oxoindolin-1-yl)pyridin-3-yl)methyl)phthalazin-1(2H)-one] | 117 to 120 °C | 75 to 100% | 75 to 100% | –

Second part, led by results:

Row | melting point | inhibition at 0.01 µM ([1]; read-out: % inhibition 10 nM) | inhibition at 0.1 µM ([1]; read-out: % inhibition 100 nM) | Compound | further results
14 | 232 to 235 °C | 75 to 100% | 75 to 100% | O=C1Cc2ccccc2N1c1cc(Cc2n[nH]c(=O)c3ccccc23)ccc1F [Example 33, 4-(4-Fluoro-3-(2-oxoindolin-1-yl)benzyl)phthalazin-1(2H)-one] | –
15 | 114 to 117 °C | 25 to 50% | 75 to 100% | CC1(C)C(=O)N(c2cc(Cc3n[nH]c(=O)c4ccccc34)ccc2F)c2cccnc21 [Example 37, 4-(3-(3,3-Dimethyl-2-oxo-2,3-dihydro-1H-pyrrolo[3,2-b]pyridin-1-yl)-4-fluorobenzyl)phthalazin-1(2H)-one] | –
16 | 219 to 221 °C | 75 to 100% | 75 to 100% | CC1(O)C(=O)N(c2cncc(Cc3n[nH]c(=O)c4cc(F)ccc34)c2)c2cc(F)ccc21 (stereo not drawn) [Example 17, 7-Fluoro-4-((5-(6-fluoro-3-hydroxy-3-methyl-2-oxoindolin-1-yl)pyridin-3-yl)methyl)phthalazin-1(2H)-one] | –
17 | 242 to 245 °C | 25 to 50% | 75 to 100% | CC1(C)C(=O)N(c2cncc(Cc3n[nH]c(=O)c4ccccc34)c2)c2cccnc21 [Example 36, 4-((5-(3,3-Dimethyl-2-oxo-2,3-dihydro-1H-pyrrolo[3,2-b]pyridin-1-yl)pyridin-3-yl)methyl)phthalazin-1(2H)-one] | –
18 | 237 to 239 °C | 75 to 100% | 75 to 100% | CC(=O)OC1(C)C(=O)N(c2cncc(Cc3n[nH]c(=O)c4ccccc34)c2)c2ccccc21 (stereo not drawn) [Example 32, 3-Methyl-2-oxo-1-(5-((4-oxo-3,4-dihydrophthalazin-1-yl)methyl)pyridin-3-yl)indolin-3-yl acetate] | –
19 | 133 to 136 °C | 25 to 50% | 75 to 100% | CC1(O)C(=O)N(c2cccc(Cc3n[nH]c(=O)c4ccccc34)c2)c2cnccc21 (stereo not drawn) [Example 31, 4-(3-(3-Hydroxy-3-methyl-2-oxo-2,3-dihydro-1H-pyrrolo[2,3-c]pyridin-1-yl)benzyl)phthalazin-1(2H)-one] | –
20 | 219 to 222 °C | 75 to 100% | 75 to 100% | O=C1N(c2cncc(Cc3n[nH]c(=O)c4ccccc34)c2)c2ccccc2C12CC2 [Example 38, 1′-(5-((4-Oxo-3,4-dihydrophthalazin-1-yl)methyl)pyridin-3-yl)spiro[cyclopropane-1,3′-indolin]-2′-one] | –
21 | 221 to 224 °C | 75 to 100% | 75 to 100% | CC1(C)C(=O)N(c2cncc(Cc3n[nH]c(=O)c4ccccc34)c2)c2ccccc21 [Example 35, 4-((5-(3,3-Dimethyl-2-oxoindolin-1-yl)pyridin-3-yl)methyl)phthalazin-1(2H)-one] | –
22 | 240 to 243 °C | 75 to 100% | 75 to 100% | CC1(O)C(=O)N(c2cccc(Cc3n[nH]c(=O)c4ccccc34)c2)c2ccccc21 (stereo not drawn) [Example 28, 4-(3-(3-Hydroxy-3-methyl-2-oxoindolin-1-yl)benzyl)phthalazin-1(2H)-one] | –
23 | 207 to 210 °C | 75 to 100% | 75 to 100% | CC1(O)C(=O)N(c2cc(Cc3n[nH]c(=O)c4cc(F)ccc34)ccc2F)c2ccccc21 (stereo not drawn) [Example 29, 7-Fluoro-4-(4-fluoro-3-(3-hydroxy-3-methyl-2-oxoindolin-1-yl)benzyl)phthalazin-1(2H)-one] | –
24 | 129 to 132 °C | 75 to 100% | 75 to 100% | CC1(C)C(=O)N(c2cc(Cc3n[nH]c(=O)c4ccccc34)ccc2F)c2ccccc21 [Example 34, 4-(3-(3,3-Dimethyl-2-oxoindolin-1-yl)-4-fluorobenzyl)phthalazine-1(2H)-one] | –
25 | 207 to 210 °C | 25 to 50% | 75 to 100% | COC1(C)C(=O)N(c2cncc(Cc3n[nH]c(=O)c4ccccc34)c2)c2ccccc21 (stereo not drawn) [Example 30, 4-((5-(3-methoxy-3-methyl-2-oxoindolin-1-yl)pyridin-3-yl)methyl)phthalazin-1(2H)-one] | –
